Source: PubChem BioAssay (NCI)
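Step 1: Grow cells in 96-well plates. Step 2: Expose to compound for 48 hours at 5 concentrations. Step 3: Interpolate endpoints linearly; if unreached, use highest concentration. TGI marks complete inhibition of growth.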

Key:
Assay in all cases: DTP human tumour cell line panel, 48 h
[1] = tested on: 786-0 renal
[2] = tested on: A498 renal
[3] = tested on: A549 NSCLC
[4] = tested on: ACHN renal
[5] = tested on: BT-549 breast
[6] = tested on: CAKI-1 renal
[7] = tested on: CCRF-CEM leukemia
[8] = tested on: COLO 205 colon
[9] = tested on: DU-145 prostate
[10] = tested on: EKVX NSCLC
[11] = tested on: HCC-2998 colon
[12] = tested on: HCT-116 colon
[13] = tested on: HCT-15 colon
[14] = tested on: HL-60(TB) leukemia
[15] = tested on: HOP-62 NSCLC
[16] = tested on: HOP-92 NSCLC
[17] = tested on: HS 578T breast
[18] = tested on: HT29 colon
[19] = tested on: IGROV1 ovarian
[20] = tested on: K-562 leukemia
[21] = tested on: KM12 colon
[22] = tested on: LOX IMVI melanoma
[23] = tested on: M14 melanoma
[24] = tested on: MALME-3M melanoma
[25] = tested on: MCF7 breast
[26] = tested on: MDA-MB-231 breast
[27] = tested on: MDA-MB-435
[28] = tested on: MDA-N
[29] = tested on: MOLT-4 leukemia
[30] = tested on: NCI-H226 lung
[31] = tested on: NCI-H23 lung
[32] = tested on: NCI-H460 lung
[33] = tested on: NCI-H522 lung
[34] = tested on: NCI/ADR-RES ovarian
[35] = tested on: OVCAR-3 ovarian
[36] = tested on: OVCAR-4 ovarian
[37] = tested on: OVCAR-5 ovarian
[38] = tested on: OVCAR-8 ovarian
[39] = tested on: PC-3 prostate
[40] = tested on: RPMI-8226 leukemia
[41] = tested on: RXF 393 renal
[42] = tested on: SF-268 CNS
[43] = tested on: SF-295 CNS
[44] = tested on: SF-539 CNS
[45] = tested on: SK-MEL-2 melanoma
[46] = tested on: SK-MEL-28 melanoma
[47] = tested on: SK-MEL-5 melanoma
[48] = tested on: SK-OV-3 ovarian
[49] = tested on: SN12C renal
[50] = tested on: SNB-19 CNS
[51] = tested on: SNB-75 CNS
[52] = tested on: SR leukemia
[53] = tested on: SW-620 colon
[54] = tested on: T-47D breast
[55] = tested on: TK-10 renal
[56] = tested on: U251 CNS
[57] = tested on: UACC-257 melanoma
[58] = tested on: UACC-62 melanoma
[59] = tested on: UO-31 renal
[60] = tested on: DLD-1 colon
[61] = tested on: DMS 114 small cell lung
[62] = tested on: DMS 273 small cell lung
[63] = tested on: HOP-18 NSCLC
[64] = tested on: KM20L2 colon
[65] = tested on: LXFL 529 NSCLC
[66] = tested on: SNB-78 CNS

O=C1CC2SC(COCc3ccccc3)(CCN2Cc2ccccc2)C1 (stereo not drawn)
TGI [1]: > 100 µM
TGI [2]: > 100 µM
TGI [3]: > 100 µM
TGI [4]: > 100 µM
TGI [5]: > 100 µM
TGI [6]: > 100 µM
TGI [7]: > 100 µM
TGI [8]: > 100 µM
TGI [9]: > 100 µM
TGI [10]: > 100 µM
TGI [11]: > 100 µM
TGI [12]: > 100 µM
TGI [13]: > 100 µM
TGI [14]: 43 µM
TGI [15]: > 100 µM
TGI [16]: > 100 µM
TGI [17]: > 100 µM
TGI [18]: > 100 µM
TGI [19]: > 100 µM
TGI [20]: > 100 µM
TGI [21]: > 100 µM
TGI [22]: > 100 µM
TGI [23]: > 100 µM
TGI [24]: > 100 µM
TGI [25]: 81.9 µM
TGI [26]: > 100 µM
TGI [27]: > 100 µM
TGI [28]: > 100 µM
TGI [29]: 91.9 µM
TGI [30]: > 100 µM
TGI [31]: > 100 µM
TGI [32]: > 100 µM
TGI [33]: > 100 µM
TGI [34]: > 100 µM
TGI [35]: > 100 µM
TGI [36]: > 100 µM
TGI [37]: > 100 µM
TGI [38]: > 100 µM
TGI [39]: > 100 µM
TGI [40]: 93.4 µM
TGI [41]: > 100 µM
TGI [42]: > 100 µM
TGI [43]: > 100 µM
TGI [44]: > 100 µM
TGI [45]: > 100 µM
TGI [46]: > 100 µM
TGI [47]: 34.8 µM
TGI [48]: > 100 µM
TGI [49]: > 100 µM
TGI [50]: > 100 µM
TGI [51]: > 100 µM
TGI [52]: > 100 µM
TGI [53]: > 100 µM
TGI [54]: > 100 µM
TGI [55]: 76.3 µM
TGI [56]: > 100 µM
TGI [57]: > 100 µM
TGI [58]: > 100 µM
TGI [59]: > 100 µM

Cc1ccc(-c2cc(-c3ccco3)c(C#N)c(=O)n2C2OC(CO)C(O)C(O)C2O)cc1 (stereo not drawn)
TGI [2]: 50.9 µM
TGI [4]: > 100 µM
TGI [7]: > 100 µM
TGI [8]: > 100 µM
TGI [60]: > 100 µM
TGI [61]: > 100 µM
TGI [62]: > 100 µM
TGI [10]: > 100 µM
TGI [11]: > 100 µM
TGI [12]: > 100 µM
TGI [13]: > 100 µM
TGI [14]: > 100 µM
TGI [63]: > 100 µM
TGI [15]: 91.4 µM
TGI [18]: > 100 µM
TGI [19]: > 100 µM
TGI [20]: > 100 µM
TGI [21]: > 100 µM
TGI [64]: > 100 µM
TGI [22]: > 100 µM
TGI [65]: > 100 µM
TGI [23]: > 100 µM
TGI [24]: 78.2 µM
TGI [29]: > 100 µM
TGI [30]: > 100 µM
TGI [31]: > 100 µM
TGI [32]: > 100 µM
TGI [33]: > 100 µM
TGI [35]: > 100 µM
TGI [36]: > 100 µM
TGI [37]: > 100 µM
TGI [38]: > 100 µM
TGI [40]: > 100 µM
TGI [41]: > 100 µM
TGI [42]: > 100 µM
TGI [43]: > 100 µM
TGI [46]: > 100 µM
TGI [47]: 45.7 µM
TGI [48]: 59.8 µM
TGI [49]: > 100 µM
TGI [50]: > 100 µM
TGI [66]: > 100 µM
TGI [52]: > 100 µM
TGI [53]: > 100 µM
TGI [55]: > 100 µM
TGI [56]: > 100 µM
TGI [57]: > 100 µM
TGI [58]: > 100 µM
TGI [59]: > 100 µM
